target: T1, human SK3 channel (hKCa2.3) (Homo sapiens, UniProt Q9UGI6); test: Automated whole cell patch-clamp (QPatch 16 HT), inhibition of SK3 current; format: cell-based; details: HEK-293 cells stably expressing hKCa2.3; symmetrical K+ solutions, free calcium 400 nM; effects normalized to N-methyl bicuculline
T1 construct: expressed in transfected cells
Description: Automated whole cell patch-clamp recordings were performed using a QPatch 16 HT system and single-hole Qplates (Biolin Scientific, Sophion, Denmark) on HEK-293 cells stably expressing the human SK3 channel (hKCa2.3). Cells were cultured and prepared for experiments using normal cell culturing procedures. A total of 4-5 million cells were used per experiment. The Qpatch automatically generates giga sealing, whole-cell formation, compound application and recording of current. hKCa2.3 currents were recorded in symmetrical K^+ solutions, with an intracellular solution consisting of in mM: KCl 108; KOH/EGTA (ethylene glycol-bis(2-aminoethylether)-N,N,N′,N′-tetraacetic acid) 31.25/10; CaCl2) 8.1; MgCl2 1.2; HEPES (2-[4-(2-hydroxyethyl)piperazin-1-yl]ethanesulfonic acid) 10; KOH 15, pH adjusted to pH=7.2 with HCl. The free calcium concentration was calculated to 400 nM. The extracellular solution consisted of in mM: KCl 150; CaCl2) 0.1; MgCl2 3; HEPES 10; Glucose 10, pH=7.4 with KOH. The cells were held at 0 mV and hKCa2.3 currents were elicited by a linear voltage ramp from […] (200 ms in duration) applied every 5th second. The compound application protocol consisted of 12 recording periods lasting from 50-200 s: 1) Baseline recordings in extracellular solution; 2) Application of the positive control N-methyl bicuculline (100 μM), which is characterized by full efficacy, fast on- and off-rate; 3-4) Wash-out; 5-9) Increasing concentrations of test compound to establish an IC50 value; 10-11) Wash-out; 12) positive control with compound NS8593 (N-[(1R)-1,2,3,4-tetrahydro-1-naphthalenyl]-1H-benzimidazol-2-amine) (1 μM). Data were sampled at 10 kHz, 4th order Bessel filter, cut-off frequency 3 kHz. Currents were compensated for run-down. Potency was quantified as the concentration needed to inhibit half of the SK channel activity and reported as an IC50 value. All effects of compounds of the present invention as tested were normalized to the observed inhibitory effect of N-methyl bicuculline.

IC50	Structure (SMILES)
< 10 µM	O=C(CC(Nc1nc2ccccc2[nH]1)c1cccc(C(F)(F)F)c1)NCCOC(F)(F)F (single isomer, unassigned) [Example 67a, 3-[(1H-1,3-benzodiazol-2-yl)amino]-N-[2-(trifluoromethoxy)ethyl]-3-[3-(trifluoromethyl)phenyl]propanamide]
< 10 µM	O=C(CC(Nc1nc2ccccc2[nH]1)c1cccc(C(F)(F)F)c1)NCCOCC(F)(F)F (single isomer, unassigned) [Example 68a, 3-[(1H-1,3-benzodiazol-2-yl)amino]-N-[2-(2,2,2-trifluoroethoxy)ethyl]-3-[3-(trifluoromethyl)phenyl]propanamide]
< 10 µM	COC[C@H](NC(=O)CC(Nc1nc2ccccc2[nH]1)c1cccc(C(F)(F)F)c1)c1ccccc1 (single isomer, unassigned) [Example 69a]
< 10 µM	COC[C@H](NC(=O)CC(Nc1nc2ccccc2[nH]1)c1cccc(SC(F)(F)F)c1)c1ccccc1 (single isomer, unassigned) [Example 70a]
< 10 µM	O=C(C(Nc1nc2ccccc2[nH]1)c1cccc(C(F)(F)F)c1)N1CCC1 (single isomer, unassigned; (+)) [Example 34a, (+)1-(azetidin-1-yl)-2-[(1H-1,3-benzodiazol-2-yl)amino]-2-[3-(trifluoromethyl)phenyl]ethan-1-one]
10 to 100 µM	CCN(CCO)C(=O)C(Nc1nc2ccccc2[nH]1)c1cccc(C(F)(F)F)c1 (single isomer, unassigned; (+)) [Example 38b, (+)2-[(1H-1,3-benzodiazol-2-yl)amino]-N-ethyl-N-(2-hydroxyethyl)-2-[3-(trifluoromethyl)phenyl]acetamide]
10 to 100 µM	CCN(CCO)C(=O)CC(Nc1nc2ccccc2[nH]1)c1ccc(Cl)c(C)c1 (single isomer, unassigned; (+)) [Example 40b, (+)3-[(1H-1,3-benzodiazol-2-yl)amino]-3-(4-chloro-3-methylphenyl)-N-ethyl-N-(2-hydroxyethyl)propanamide]
10 to 100 µM	CC(C)(O)CNC(=O)CC(Nc1nc2ccccc2[nH]1)c1cccc(C(F)(F)F)c1 (single isomer, unassigned; (-)) [Example 4a, (−) 3-[(1H-1,3-benzodiazol-2-yl)amino]-N-(2-hydroxy-2-methylpropyl)-3-[3-(trifluoromethyl)phenyl]propanamide]
< 10 µM	CN(CCCO)C(=O)CC(Nc1nc2ccccc2[nH]1)c1cccc(C(F)(F)F)c1 (single isomer, unassigned; (-)) [Example 17a, (−) 3-[(1H-1,3-benzodiazol-2-yl)amino]-N-(3-hydroxypropyl)-N-methyl-3-[3-(trifluoromethyl)phenyl]propanamide]
10 to 100 µM	CN1CCN(C(=O)C(Nc2nc3ccccc3[nH]2)c2cccc(C(F)(F)F)c2)CC1 (single isomer, unassigned; (-)) [Example 27a, (−)2-[(1H-1,3-benzodiazol-2-yl)amino]-1-(4-methylpiperazin-1-yl)-2-[3-(trifluoromethyl)phenyl]ethan-1-one]
< 10 µM	CCN(CCO)C(=O)C(Nc1nc2ccccc2[nH]1)c1cccc(C(F)(F)F)c1 (single isomer, unassigned; (-)) [Example 38a, (−)2-[(1H-1,3-benzodiazol-2-yl)amino]-N-ethyl-N-(2-hydroxyethyl)-2-[3-(trifluoromethyl)phenyl]acetamide]
< 10 µM	CCN(CCO)C(=O)CC(Nc1nc2ccccc2[nH]1)c1ccc(F)c(C)c1 (single isomer, unassigned; (-)) [Example 39a, (−)3-[(1H-1,3-benzodiazol-2-yl)amino]-N-ethyl-3-(4-fluoro-3-methylphenyl)-N-(2-hydroxyethyl)propanamide]
< 10 µM	CCN(CCO)C(=O)CC(Nc1nc2ccccc2[nH]1)c1ccc(Cl)c(C)c1 (single isomer, unassigned; (-)) [Example 40a, (−)3-[(1H-1,3-benzodiazol-2-yl)amino]-3-(4-chloro-3-methylphenyl)-N-ethyl-N-(2-hydroxyethyl)propanamide]
< 10 µM	CCN(CCO)C(=O)CC(Nc1nc2ccccc2[nH]1)c1cccc(C(F)(F)F)c1 (single isomer, unassigned; (-)) [Example 41a, (−)3-[(1H-1,3-benzodiazol-2-yl)amino]-N-ethyl-N-(2-hydroxyethyl)-3-[3-(trifluoromethyl)phenyl]propanamide]
< 10 µM	COCCNC(=O)CC(Nc1nc2ccccc2[nH]1)c1cccc(C(F)(F)F)c1 (single isomer, unassigned; (-)) [Example 42a, (−)3-[(1H-1,3-benzodiazol-2-yl)amino]-N-(2-methoxyethyl)-3-[3-(trifluoromethyl)phenyl]propanamide]
< 10 µM	CN(CC#N)C(=O)CC(Nc1nc2ccccc2[nH]1)c1cccc(C(F)(F)F)c1 (single isomer, unassigned; (-)) [Example 56a, (−)3-[(1H-1,3-benzodiazol-2-yl)amino]-N-(cyanomethyl)-N-methyl-3-[3-(trifluoromethyl)phenyl]propanamide]
< 10 µM	COC(=O)CN(C)C(=O)CC(Nc1nc2ccccc2[nH]1)c1cccc(C(F)(F)F)c1 (single isomer, unassigned; (-)) [Example 57a, (−)Methyl 2-{3-[(1H-1,3-benzodiazol-2-yl)amino]-N-methyl-3-[3-(trifluoromethyl)phenyl]propanamido}acetate]
< 10 µM	COC(=O)CNC(=O)CC(Nc1nc2ccccc2[nH]1)c1cccc(C(F)(F)F)c1 (single isomer, unassigned; (-)) [Example 59a, (−)Methyl 2-{3-[(1H-1,3-benzodiazol-2-yl)amino]-3-[3-(trifluoromethyl)phenyl]propanamido}acetate]
< 10 µM	CCc1cc(C(CC(=O)N(CC)CCO)Nc2nc3ccccc3[nH]2)ccc1F (single isomer, unassigned; (-)) [Example 65a, (−)3-[(1H-1,3-benzodiazol-2-yl)amino]-N-ethyl-3-(3-ethyl-4-fluorophenyl)-N-(2-hydroxyethyl)propanamide]
< 10 µM	CSCCNC(=O)CC(Nc1nc2ccccc2[nH]1)c1cccc(C(F)(F)F)c1 (centres unmarked) [Example 1, 3-[(1H-1,3-benzodiazol-2-yl)amino]-N-[2-(methylsulfanyl)ethyl]-3-[3-(trifluoromethyl)phenyl]propanamide]
10 to 100 µM	CN(C)CCN(C)C(=O)CC(Nc1nc2ccccc2[nH]1)c1cccc(C(F)(F)F)c1 (centres unmarked) [Example 2, 3-[(1H-1,3-benzodiazol-2-yl)amino]-N-[2-(dimethylamino)ethyl]-N-methyl-3-[3-(trifluoromethyl)phenyl]propanamide]
10 to 100 µM	CCS(=O)(=O)NCCNC(=O)CC(Nc1nc2ccccc2[nH]1)c1cccc(C(F)(F)F)c1 (centres unmarked) [Example 3, 3-[(1H-1,3-benzodiazol-2-yl)amino]-N-(2-ethanesulfonamidoethyl)-3-[3-(trifluoromethyl)phenyl]propanamide]
10 to 100 µM	O=C(CC(Nc1nc2ccccc2[nH]1)c1cccc(C(F)(F)F)c1)N1CCC(O)CC1 (centres unmarked) [Example 5, 3-[(1H-1,3-benzodiazol-2-yl)amino]-1-(4-hydroxypiperidin-1-yl)-3-[3-(trifluoromethyl)phenyl]propan-1-one]
< 10 µM	O=C(CC(Nc1nc2ccccc2[nH]1)c1cccc(C(F)(F)F)c1)N1CC(O)C1 (centres unmarked) [Example 6, 3-[(1H-1,3-benzodiazol-2-yl)amino]-1-(3-hydroxyazetidin-1-yl)-3-[3-(trifluoromethyl)phenyl]propan-1-one]
10 to 100 µM	O=C(CC(Nc1nc2ccccc2[nH]1)c1cccc(C(F)(F)F)c1)NCC1COC1 (centres unmarked) [Example 7, 3-[(1H-1,3-benzodiazol-2-yl)amino]-N-(oxetan-3-ylmethyl)-3-[3-(trifluoromethyl)phenyl]propanamide]
< 10 µM	O=C(CC(Nc1nc2ccccc2[nH]1)c1cccc(C(F)(F)F)c1)NCC1CCCO1 (centres unmarked) [Example 8, 3-[(1H-1,3-benzodiazol-2-yl)amino]-N-(oxolan-2-ylmethyl)-3-[3-(trifluoromethyl)phenyl]propanamide]
< 10 µM	O=C(CC(Nc1nc2ccccc2[nH]1)c1cccc(C(F)(F)F)c1)N[C@H]1CCOC1 (stereo partly drawn) [Example 9, 3-[(1H-1,3-benzodiazol-2-yl)amino]-N-[(3S)-oxolan-3-yl]-3-[3-(trifluoromethyl)phenyl]propanamide]
< 10 µM	O=C(CC(Nc1nc2ccccc2[nH]1)c1cccc(C(F)(F)F)c1)NC1COC1 (centres unmarked) [Example 10, 3-[(1H-1,3-benzodiazol-2-yl)amino]-N-(oxetan-3-yl)-3-[3-(trifluoromethyl)phenyl]propanamide]
10 to 100 µM	CN1CCN(C(=O)CC(Nc2nc3ccccc3[nH]2)c2cccc(C(F)(F)F)c2)CC1=O (centres unmarked) [Example 11, 4-{3-[(1H-1,3-benzodiazol-2-yl)amino]-3-[3-(trifluoromethyl)phenyl]propanoyl}-1-methylpiperazin-2-one]
